Data published in patent US20220053762A1, “HERBICIDAL COMPOSITIONS” (Bayer Aktiengesellschaft, priority 2018, published 2022).

Tested on: harmful plant species
Experiment: Specific trial examples: binary compositions applied by the post-emergence method, synergistic effect according to Colby (Tables 3.1-3.2)
Type: in vivo
Procedure: When the observed efficacies already exceed the formal sum total of the values of the tests with individual applications, they also exceed the expected value according to Colby, which is calculated using the formula below and is likewise regarded as an indication of synergism (cf. S. R. Colby; in Weeds 15 (1967) p. 20 to 22):
Seeds or rhizome pieces of mono- and dicotyledonous weeds are placed in sandy loam in pots, covered with soil and grown in a greenhouse under good growth conditions (temperature, air humidity, water supply). Three weeks after sowing, the test plants are treated at the three-leaf stage with the compositions according to the invention. The compositions according to the invention formulated as spray powders or as emulsion concentrates are sprayed onto the green plant parts in various dosages with an application rate of 300 to 800 l/ha of water (equivalent).
The sum total of the effects of the individual applications is reported under E^A; Expected values according to Colby are each reported under E^C.
The rating period is reported in days after application (DAT).

Compound: O=C(Nc1ccc(F)cc1F)c1cccnc1Oc1cccc(C(F)(F)F)c1 [(B2.18) Diflufenican]
- Herbicidal action against Digitaria sanguinalis (28 DAT, g a.i./ha: r8 270, r9 90, r10 30, r11 15, r12 5): 20%
- Herbicidal action against Setaria faberi (28 DAT, g a.i./ha: r35 270, r36 90, r37 30, r38 15, r39 5, r40 1.67): 0%
- Herbicidal action against Setaria viridis (28 DAT, g a.i./ha: r51 270, r52 15, r53 5, r54 1.67): 10%
- Herbicidal action against Alopecurus myosuroides (sensitive biotype) (28 DAT, g a.i./ha: r149 15, r150 5, r151 270, r152 90, r153 30): 0%
- Herbicidal action against Papaver rhoeas (28 DAT, g a.i./ha: r231 15, r232 5, r233 270): 30%
- Herbicidal action against Veronica hederifolia (28 DAT, g a.i./ha: r294 5, r295 90): 60%
- Herbicidal action against Echinochloa crus-galli ((Z32) 28 DAT, g a.i./ha: r372 270, r373 90, r374 30, r375 5): 10%
- Herbicidal action against Centaurea cyanus ((Z90) 14 DAT, g a.i./ha: r533 16, r534 4, r535 1, r536 90, r537 30): 50%
- Herbicidal action against Lamium purpureum L. ((Z90) 28 DAT, g a.i./ha: r586 16, r587 30): 10%
- Herbicidal action against Lolium rigidum ((Z90) 28 DAT, g a.i./ha: r594 16, r595 30): 0%
- Herbicidal action against Matricaria inodora ((Z90) 28 DAT, g a.i./ha: r602 4, r603 90): 10%
- Herbicidal action against Viola tricolor ((Z90) 28 DAT, g a.i./ha: r624 4, r625 270): 40%
- Herbicidal action against Alopecurus myosuroides ((Z119) 14 DAT, g a.i./ha: r632 16, r633 4, r634 30, r635 270): 20%
- Herbicidal action against Lolium rigidum ((Z119) 14 DAT, g a.i./ha: r682 16, r683 30): 10%
- Herbicidal action against Phalaris minor ((Z119) 14 DAT, g a.i./ha: r709 4, r710 270): 20%
- Herbicidal action against Poa annua L. ((Z119) 14 DAT, g a.i./ha: r729 4, r730 270): 20%
- Herbicidal action against Centaurea cyanus ((Z119) 28 DAT, g a.i./ha: r654 16, r655 30): 10%
- Herbicidal action against Galium aparine ((Z119) 28 DAT, g a.i./ha: r662 1, r663 270): 20%
- Herbicidal action against Lolium rigidum ((Z119) 28 DAT, g a.i./ha: r690 16, r691 30): 0%
- Herbicidal action against Abutilon theophrasti (Z61 28 DAT, g a.i./ha: r459 30, r460 15): 10%
- Herbicidal action against Brachiaria platyphylla (Z61 28 DAT, g a.i./ha: r479 30, r480 1.7): 10%
- Herbicidal action against Eleusine indica (Z61 28 DAT, g a.i./ha: r487 270, r488 5): 20%

Compound: CP(=O)(O)CCC(N)C(=O)O (centres unmarked) [(B7.4) Glufosinate]
- Herbicidal action 28 DAT [%] against Eleusine indica (post-emergence, single active compound (A2 series), g a.i./ha: r337 150, r339 5): 50%
- Herbicidal action 28 DAT [%] against Kochia scoparia (post-emergence, single active compound (A2 series), g a.i./ha: r347 50, r349 5): 10%
- Herbicidal action 28 DAT [%] against Polygonum convulvulus (post-emergence, single active compound (A2 series), g a.i./ha: r357 50, r359 5): 30%
- Herbicidal action 28 DAT [%] against Kochia scoparia (post-emergence, single active compound (A3 series), g a.i./ha: r384 50, r386 45, r387 15, r388 5): 10%
- Herbicidal action in [%] 14 DAT against Galium aparine (post-emergence, single active compound (A4 series), g a.i./ha: r479 16, r480 4, r481 1, r482 150): 30%
- Herbicidal action in [%] 28 DAT against Galium aparine (post-emergence, single active compound (A4 series), g a.i./ha: r491 16, r492 50): 30%
- Herbicidal action in [%] 14 DAT against Lamium purpureum L. (post-emergence, single active compound (A4 series), g a.i./ha: r501 4, r502 1, r503 450): 80%
- Herbicidal action in [%] 28 DAT against Lamium purpureum L. (post-emergence, single active compound (A4 series), g a.i./ha: r512 4, r513 1, r514 450): 60%
- Herbicidal action in [%] 28 DAT against Lolium rigidum (resistant bio type) (post-emergence, single active compound (A4 series), g a.i./ha: r523 1, r524 450): 20%
- Herbicidal action in [%] 14 DAT against Poa annua L. (post-emergence, single active compound (A4 series), g a.i./ha: r533 16, r534 450): 40%
- Herbicidal action in [%] 28 DAT against Bromus sterilis (post-emergence, single active compound (A5 series), g a.i./ha: r617 4, r618 450): 10%
- Herbicidal action in [%] 14 DAT against Centaurea cyanus (post-emergence, single active compound (A5 series), g a.i./ha: r627 16, r628 1, r629 450, r630 150): 70%
- Herbicidal action in [%] 14 DAT against Galium aparine (post-emergence, single active compound (A5 series), g a.i./ha: r649 1, r650 150): 30%
- Herbicidal action in [%] 14 DAT against Lamium purpureum L. (post-emergence, single active compound (A5 series), g a.i./ha: r659 1, r660 450): 80%
- Herbicidal action in [%] 28 DAT against Lamium purpureum L. (post-emergence, single active compound (A5 series), g a.i./ha: r669 1, r670 450): 60%
- Herbicidal action 28 DAT [%] against Setaria faberi (post-emergence, single active compound, g a.i./ha: r40 50, r42 15, r43 5): 10%
- Herbicidal action 28 DAT [%] against Setaria viridis (post-emergence, single active compound, g a.i./ha: r51 50, r53 15, r54 5, r55 1.67): 10%
- Herbicidal action 28 DAT [%] against Abutilon theophrasti (post-emergence, single active compound, g a.i./ha: r77 450, r79 15, r80 5): 90%
- Herbicidal action 28 DAT [%] against Euphorbia heterophylla (post-emergence, single active compound, g a.i./ha: r88 150, r89 50, r90 45, r91 15, r92 5): 15%
- Herbicidal action 28 DAT [%] against Bromus sterilis (post-emergence, single active compound, g a.i./ha: r172 5, r173 1.67, r174 450): 30%
- Herbicidal action 28 DAT [%] against Galium aparine (post-emergence, single active compound, g a.i./ha: r183 5, r184 50): 0%
- Herbicidal action 28 DAT [%] against Lamium purpureum (post-emergence, single active compound, g a.i./ha: r204 45, r205 50): 50%
- Herbicidal action 28 DAT [%] against Lolium rigidum (sensitive biotype) (post-emergence, single active compound, g a.i./ha: r214 15, r215 150, r216 50): 0%
- Herbicidal action 28 DAT [%] against Lolium rigidum (resistant biotype) (post-emergence, single active compound, g a.i./ha: r224 15, r225 5, r226 150, r227 50): 0%
- Herbicidal action 28 DAT [%] against Veronica hederifolia (post-emergence, single active compound, g a.i./ha: r292 5, r293 150): 70%
- Herbicidal action 28 DAT [%] against Brachiaria platyphylla (post-emergence, single active compound, g a.i./ha: r314 50, r316 15, r317 5, r318 1.7): 30%
- Herbicidal action 28 DAT [%] against Pharbitis purpurea (post-emergence, single active compound, g a.i./ha: r396 50, r398 5): 40%
- Herbicidal action in [%] 28 DAT against Poa annua L. (post-emergence, single active compound, g a.i./ha: r721 16, r722 450): 30%
